Test results taken from patent publication US20250236616A1, “IMMUNOMODULATING AZALIDES” (Zoetis Services LLC, priority 2021, published 2025).

Key:
Format in all cases: cell-based
IL-6 = test: Whole bovine blood assay, LPS-induced IL-6; conditions: fresh whole bovine blood, LPS stimulant; top drug concentration 250 μM
IL-1β = test: Whole bovine blood assay, LPS-induced IL-1β (inhibition / overstimulation); conditions: drug concentration giving overstimulation (OS) of LPS-induced IL-1β
Method: Whole Blood Assay-Fresh whole bovine blood samples were collected into heparinized vacutainer tubes. Assay plates were prepared with 25 μL of drug diluted in PBS at varying concentration in 96 round bottom wells, then 225 μL of blood was added and plates incubated at 37° C. for 4 hours. Cells were stimulated with LPS (or PBS for controls) by adding 25 μL to the plates at a final concentration of 1 μg/mL and incubated at 37° C. for 18 hours. To collect plasma, plates were centrifuged at 2,000×g for 10 minutes and 100 μL of supernatant was transferred to a 96 well polypropylene plate that was sealed and stored at −80° C. Samples were assayed for cytokines using the Meso Scale Discovery (MSD) platform (described below). This same MSD platform was used to assess cytokines in the plasma collected directly from drug treated animals.
Cytokine Detection—An MSD U-Plex cytokine assay was developed following the MSD U-Plex protocol guide and included biotinylated capture antibodies against: bovine Interleukin (IL)-1β (Biorad), bovine IL-6 (R&D Systems) and bovine tumor necrosis factor (TNF)-α (R&D Systems). The anti-IL-1β antibody was biotinylated using EZ-Link Sulfo-NHS-Biotin (Thermo Scientific) at a challenge ratio of 1:20 according to manufacturer instructions. Assay calibrators (Kingfisher) were diluted to a concentration of […] in control lithium heparin plasma, followed by 4-fold serial dilutions into plasma. The detection antibodies were sulfo-tagged following the MSD quick guide conjugation protocol using a challenge ratio of 1:20. Antibodies were used at the following concentrations: anti-IL-1β at 1 μg/mL, anti-IL-6 at 1 μg/mL and anti-TNF-α at 0.5 μg/mL. Cytokines were quantified according to manufacturer's instructions using a chemiluminescent readout. In brief, 0.5 mL of all biotinylated antibodies were diluted to 10 μg/mL with Diluent 100 and paired to their respective linkers by adding 750 μL of supplied Linker solution and incubated for 30 minutes followed by addition of Stop solution for another 30 minutes. The linked antibodies were then diluted 10-fold into Stop solution. Plates were coated by adding 50 μL of antibody solutions per well and incubated covered and shaking for 1 hour at room temperature. Plates were washed three times with PBS/Tween20 prior to samples or standards being added at 30 μL per well and incubated as above. Plates were washed three times before detection antibodies were added along with 2% goat and rabbit serum to block and incubated same as above. Plates were washed a further three times before addition of 150 μL 2X Read buffer and read immediately on the SI6000 instrument (MSD). For soluble protein levels, a BCA protein kit (Thermofisher) was used. The cytokine concentrations (pg/mL) were normalized to the total protein levels for each sample. [Bassel et. al., BMC Veterinary Research (2020) 16:168]
Therefore, a fresh whole bovine blood assay was developed with LPS as a stimulant (TLR-4 agonist) and with IL-1β and TNF-α as the read-out. Compounds of the invention were evaluated against a positive control for their ability to inhibit LPS-induced IL-1β and TNF-α as an overall evaluation of relative potency and modulation of target pathways.
For M9, the top dose of 500 μM was not high enough to determine an overstimulation of IL-1 B which was recorded as not applicable (n/a). The enhanced response indicates increased concentration of IL-1β cytokine at the drug concentration indicated. This is generally observed when compounds are out of range (high concentration) and stimulate a cellular toxicity signal. Further data supporting this hypothesis includes murine studies using a P. multocida infection in mice.
TNFα is a cell signaling protein, cytokine, that plays a key role in both acute and chronic inflammation. […]

TNF-α = test: Whole bovine blood assay, LPS-induced TNF-α; conditions: fresh whole bovine blood, LPS stimulant
Summary of the method: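 Fresh heparinized bovine whole blood was preincubated with compound 4 h at 37 °C, then stimulated with LPS (final 1 μg/mL) for 18 h at 37 °C. Plasma TNF-α was quantified by MSD U-Plex chemiluminescent immunoassay, normalized to total protein (BCA), and IC50 taken for LPS-induced TNF-α inhibition.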

Row | Compound | IC50 (IL-6) [µM] | IC50 (TNF-α; top drug concentration 250 μM) [µM] | IC50 (TNF-α; dose of 500 μM (footnote ^)) [µM] | minimal effective concentration (IL-1β; top concentration 250 μM) [µM] | minimal effective concentration (IL-1β; dose of 500 μM (footnote ^)) [µM]
1 | CC[C@H]1OC(=O)[C@H](C)[C@@H](O)[C@H](C)[C@@H](O[C@@H]2O[C@H](C)C[C@H](N(C)S(=O)(=O)C3CC3)[C@H]2Oc2ccccc2)[C@](C)(O)C[C@@H](C)CN[C@H](C)[C@@H](O)[C@]1(C)O [Example A-32] | 167 |  |  | 100 | 
2 | CCCNC[C@]1(O)[C@H](C)O[C@@H](O[C@H]2[C@H](C)[C@@H](O[C@@H]3O[C@H](C)C[C@H](N(C)S(=O)(=O)c4cnc(Cl)c(Br)c4)[C@H]3Oc3ccc(OC)cc3)[C@](C)(O)C[C@@H](C)CN[C@H](C)[C@@H](O)[C@](C)(O)[C@@H](CC)OC(=O)[C@@H]2C)C[C@@]1(C)OC [Example B-117] | 142 |  |  | 16 | 
3 | CC[C@H]1OC(=O)[C@H](C)[C@@H](O[C@H]2C[C@@](C)(OC)[C@](O)(CNCCC3CCOCC3)[C@H](C)O2)[C@H](C)[C@@H](O[C@@H]2O[C@H](C)C[C@H](N(C)S(=O)(=O)c3ccc(Cl)cc3)[C@H]2O)[C@](C)(O)C[C@@H](C)CN[C@H](C)[C@@H](O)[C@]1(C)O [Example B-34] | 20 |  |  | 6 | 
4 | CCCNC[C@]1(O)[C@H](C)O[C@@H](O[C@H]2[C@H](C)[C@@H](O[C@@H]3O[C@H](C)C[C@H](N(C)S(=O)(=O)c4cnn(-c5ccc(C(F)(F)F)cn5)c4)[C@H]3Oc3ccc(OC)cc3)[C@](C)(O)C[C@@H](C)CN[C@H](C)[C@@H](O)[C@](C)(O)[C@@H](CC)OC(=O)[C@@H]2C)C[C@@]1(C)OC [Example B-123] | 4 |  |  | 6 | 
5 | CC[C@H]1OC(=O)[C@H](C)[C@@H](O[C@H]2C[C@@](C)(OC)[C@](O)(CN3CCC3)[C@H](C)O2)[C@H](C)[C@@H](O[C@@H]2O[C@H](C)C[C@H](N(C)S(=O)(=O)c3ccc(Cl)cc3)[C@H]2O)[C@](C)(O)C[C@@H](C)CN[C@H](C)[C@@H](O)[C@]1(C)O [Example C-2] | 13 |  |  | 6 | 
6 | CCCNC[C@]1(O)[C@H](C)O[C@@H](O[C@H]2[C@H](C)[C@@H](O[C@@H]3O[C@H](C)C[C@H](N(C)S(N)(=O)=O)[C@H]3O)[C@](C)(O)C[C@@H](C)CN(CCC)[C@H](C)[C@@H](O)[C@](C)(O)[C@@H](CC)OC(=O)[C@@H]2C)C[C@@]1(C)OC [Example B-158] |  | 102 |  | >250 | 
7 | CCCNC[C@]1(O)[C@H](C)O[C@@H](O[C@H]2[C@H](C)[C@@H](O[C@@H]3O[C@H](C)C[C@H](N(C)S(=O)(=O)c4cn(C)c(C)n4)[C@H]3O)[C@](C)(O)C[C@@H](C)CN[C@H](C)[C@@H](O)[C@](C)(O)[C@@H](CC)OC(=O)[C@@H]2C)C[C@@]1(C)OC [Example B-5] |  | > 250 |  | >250 | 
8 | CCCNC[C@]1(O)[C@H](C)O[C@@H](O[C@H]2[C@H](C)[C@@H](O[C@@H]3O[C@H](C)C[C@H](N(C)S(=O)(=O)CC4CC4)[C@H]3O)[C@](C)(O)C[C@@H](C)CN[C@H](C)[C@@H](O)[C@](C)(O)[C@@H](CC)OC(=O)[C@@H]2C)C[C@@]1(C)OC [Example B-10] |  | 33 |  | 15 | 
9 | CC[C@H]1OC(=O)[C@H](C)[C@@H](O[C@H]2C[C@@](C)(OC)[C@](O)(CNCCCN(C)C)[C@H](C)O2)[C@H](C)[C@@H](O[C@@H]2O[C@H](C)C[C@H](N(C)S(=O)(=O)Nc3ccc(C(F)(F)F)cc3)[C@H]2O)[C@](C)(O)C[C@@H](C)CN[C@H](C)[C@@H](O)[C@]1(C)O [Example B-74] |  | 33 |  | 16 | 
10 | CCCN1C[C@H](C)C[C@@](C)(O)[C@H](O[C@@H]2O[C@H](C)C[C@H](N(C)S(N)(=O)=O)[C@H]2O)[C@@H](C)[C@H](O[C@H]2C[C@@](C)(OC)[C@](O)(CN3CCCCC3)[C@H](C)O2)[C@@H](C)C(=O)O[C@H](CC)[C@@](C)(O)[C@H](O)[C@H]1C [Example C-17] |  | 23 |  | 250 | 
11 | CC[C@H]1OC(=O)[C@H](C)[C@@H](O[C@H]2C[C@@](C)(OC)[C@](O)(CNCCOC(F)(F)F)[C@H](C)O2)[C@H](C)[C@@H](O[C@@H]2O[C@H](C)C[C@H](N(C)S(=O)(=O)Nc3ccc(C(F)(F)F)cc3)[C@H]2O)[C@](C)(O)C[C@@H](C)CN[C@H](C)[C@@H](O)[C@]1(C)O [Example B-129] |  | 10 |  | 2 | 

Further lines, with some results ahead:

Row | IC50 (IL-6) [µM] | IC50 (TNF-α; top drug concentration 250 μM) [µM] | IC50 (TNF-α; dose of 500 μM (footnote ^)) [µM] | Compound | minimal effective concentration (IL-1β; top concentration 250 μM) [µM] | minimal effective concentration (IL-1β; dose of 500 μM (footnote ^)) [µM]
12 | 24 |  |  | CCCNC[C@]1(O)[C@H](C)O[C@@H](O[C@H]2[C@H](C)[C@@H](O[C@@H]3O[C@H](C)C[C@H](N(C)S(=O)(=O)c4ccccc4)[C@H]3Oc3cccc(CO)c3)[C@](C)(O)C[C@@H](C)CN[C@H](C)[C@@H](O)[C@](C)(O)[C@@H](CC)OC(=O)[C@@H]2C)C[C@@]1(C)OC [Example B-133] | 16 | 
13 | 24 |  |  | CC[C@H]1OC(=O)[C@H](C)[C@@H](O[C@H]2C[C@@](C)(OC)[C@](O)(CN3CCCCC3)[C@H](C)O2)[C@H](C)[C@@H](O[C@@H]2O[C@H](C)C[C@H](N(C)S(=O)(=O)Nc3ccccc3)[C@H]2O)[C@](C)(O)C[C@@H](C)CN(CC)[C@H](C)[C@@H](O)[C@]1(C)O [Example C-20] | 10 | 
14 |  | > 250 |  | CCCNC[C@]1(O)[C@H](C)O[C@@H](O[C@H]2[C@H](C)[C@@H](O[C@@H]3O[C@H](C)C[C@H](N(C)S(=O)(=O)c4ccc(C#N)cc4)[C@H]3O)[C@](C)(O)C[C@@H](C)CN[C@H](C)[C@@H](O)[C@](C)(O)[C@@H](CC)OC(=O)[C@@H]2C)C[C@@]1(C)OC [Example B-13] | 100 | 
15 |  |  | 15 | CCCNC[C@]1(O)[C@H](C)O[C@@H](O[C@H]2[C@H](C)[C@@H](O[C@@H]3O[C@H](C)C[C@H](N(C)S(=O)(=O)c4ccc(OC)cc4)[C@H]3O)[C@](C)(O)C[C@@H](C)CN[C@H](C)[C@@H](O)[C@](C)(O)[C@@H](CC)OC(=O)[C@@H]2C)C[C@@]1(C)OC [Example B-18] |  | 32
16 |  | 24 |  | CCCNC[C@]1(O)[C@H](C)O[C@@H](O[C@H]2[C@H](C)[C@@H](O[C@@H]3O[C@H](C)C[C@H](N(C)S(=O)(=O)c4ccc(F)nc4)[C@H]3O)[C@](C)(O)C[C@@H](C)CN[C@H](C)[C@@H](O)[C@](C)(O)[C@@H](CC)OC(=O)[C@@H]2C)C[C@@]1(C)OC [Example B-6] | 16 | 
17 |  | 10 |  | CC[C@H]1OC(=O)[C@H](C)[C@@H](O)[C@H](C)[C@@H](O[C@@H]2O[C@H](C)C[C@H](N(C)S(=O)(=O)Nc3ccccc3)[C@H]2Oc2ccc(OC)cc2)[C@](C)(O)C[C@@H](C)CN[C@H](C)[C@@H](O)[C@]1(C)O [Example A-36] | 4 | 
18 |  | 30 |  | CCCNC[C@]1(O)[C@H](C)O[C@@H](O[C@H]2[C@H](C)[C@@H](O[C@@H]3O[C@H](C)C[C@H](N(C)S(=O)(=O)c4ccc(-n5cccn5)cc4)[C@H]3O)[C@](C)(O)C[C@@H](C)CN[C@H](C)[C@@H](O)[C@](C)(O)[C@@H](CC)OC(=O)[C@@H]2C)C[C@@]1(C)OC [Example B-19] | 16 | 
19 |  | 25 |  | CCCNC[C@]1(O)[C@H](C)O[C@@H](O[C@H]2[C@H](C)[C@@H](O[C@@H]3O[C@H](C)C[C@H](N(C)S(=O)(=O)c4ccccc4)[C@H]3O)[C@](C)(O)C[C@@H](C)CN[C@H](C)[C@@H](O)[C@](C)(O)[C@@H](CC)OC(=O)[C@@H]2C)C[C@@]1(C)OC [Example B-7] | 40 | 
